Our source for the IC50 values is patent publication US20230151014A1 (Repare Therapeutics Inc., priority 2020, published 2023).

The term IC50 denotes the midpoint of a concentration-inhibition curve.

For this assay, the target named is T1, recombinant human Myt1 (Homo sapiens, UniProt Q99640).
T1 construct: full length PKMYT1 recombinant human protein expressed in insect cells
T1 sequence (Q99640 1-499): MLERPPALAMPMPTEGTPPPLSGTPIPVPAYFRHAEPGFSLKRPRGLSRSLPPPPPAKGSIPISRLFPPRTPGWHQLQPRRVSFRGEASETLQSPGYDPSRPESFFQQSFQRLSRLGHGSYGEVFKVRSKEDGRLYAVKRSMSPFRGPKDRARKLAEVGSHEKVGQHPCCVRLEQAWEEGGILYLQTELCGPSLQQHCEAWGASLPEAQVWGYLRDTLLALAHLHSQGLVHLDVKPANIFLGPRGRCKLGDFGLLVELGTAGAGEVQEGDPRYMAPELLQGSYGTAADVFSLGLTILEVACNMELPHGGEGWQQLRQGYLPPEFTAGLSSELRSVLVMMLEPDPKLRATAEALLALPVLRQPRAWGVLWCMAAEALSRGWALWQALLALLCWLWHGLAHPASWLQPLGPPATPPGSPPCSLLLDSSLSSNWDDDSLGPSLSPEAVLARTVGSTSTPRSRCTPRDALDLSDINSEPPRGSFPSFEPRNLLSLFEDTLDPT
Put plainly: Myt1 enzymatic assay (ADP-Glo kinase assay, IC50 and % max inhibition). It counts as biochemical. Particulars: recombinant human Myt1 18 nM, ATP 10 μM. The gist of the method:
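Compounds (0.5% DMSO) preincubated with recombinant human Myt1 for 15 min at 22° C, then ATP added and reaction run 60 min at 30° C.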

Each structure is given as a SMILES string. Bounds are passed on as bounds.

Take `Cc1ccc(O)c(C)c1-n1c(N)c(C(N)=O)c2cc(I)cnc21` [Compound 319]: the IC50 was less than 10 nM.
For `Cc1ccc(O)c(Cl)c1-n1c(N)c(C(N)=O)c2cc(Cl)cnc21` [Compound 327], the IC50 is less than 10 nM.
Turning to `Cc1ccc(O)c(C)c1-n1c(N)c(C(N)=O)c2cccnc21` [Compound 328], the IC50 is less than 10 nM.
